Non-standard residues stand in square brackets, D forms with d. Residues, ends and D or L forms follow the SMILES beside them. ξ: configuration not given here. *: point of attachment. ξPhe(4-F) = NC(Cc1ccc(F)cc1)C(=O)O; Boc = CC(C)(C)OC(=O)*
Row | melting point [°C] | Structure (SMILES)
1 | 181 to 183 | Cn1cc(-c2cccc(C(F)(F)F)c2)c(=O)c(-n2cncn2)c1
2 | 230 to 232 | FC(F)c1nc2ccccc2n1-c1nc(Nc2ccccn2)nc(N2CCOCC2)n1
3 | 158 to 160 | CNC(=S)C1=CC(C)(C(F)(F)F)Oc2ccc([N+](=O)[O-])cc21 (stereo not given)
4 | 220 | Cc1c(OCc2ccccc2)ccc2c(O)c(C(=O)Nc3cccc(F)c3)c(=O)oc12
5 | 195 to 203 | CN(CCN(C)c1ccnc2c(NC(=O)c3c(Cl)cccc3Cl)cccc12)C(=O)c1cccnc1
6 | 159 | Cc1cnc2cc(NS(=O)(=O)c3cccc(Cl)c3C)ccc2n1
7 | 185 to 186 | CCOC(Cc1ccc(OCc2nc(C(C)(C)C)oc2C)c2ccccc12)C(=O)O (stereo not given)
8 | 173 to 174 | CCOC(=O)c1c(COc2cccc(C)n2)nc2cc(OC)c(OC)cc2c1-c1ccc(OC)c(OC)c1
9 | 114 to 116 | Brc1c[nH]nc1-c1ccccc1
10 | 139 to 140 | C=C(c1ccc(OC)cc1)c1sc(C)nc1C
11 | 201 to 202 | COc1ccc(CN2CCC(c3cn(Cc4ccc(Cl)s4)c4cccnc34)CC2)cc1C(=O)O
12 | 150 to 151 | CS(=O)(=O)Nc1ccc(OCC2CCN(C(=O)OCc3ccccc3)CC2)cc1
13 | 181 to 182 | CCNC(=O)C(Cc1ccc(F)cc1)NC(=O)CNC(=O)OC(C)(C)C (stereo not drawn) (Boc-Gly-[ξPhe(4-F)]-NHEt)
14 | 235 to 237 | Cc1cc2c(-c3ccccc3)c(C(=O)NCc3cc(C(F)(F)F)cc(C(F)(F)F)c3)n(CC(N)=O)c(=O)c2cc1C
15 | 84 to 85 | CC(C)(C)OC(=O)N(N)Cc1ccc(-c2ccccc2)cc1
16 | 97 to 99 | O=C(c1ccccc1)N(N=Cc1ccccc1)c1ccccc1F
17 | 60 to 62 | N#CC(C(=O)c1ccc(C(F)(F)F)cc1S(=O)(=O)C1CCCCC1)C(=O)C1CC1 (stereo not given)
18 | 144 to 146 | Nc1c([N+](=O)[O-])ccc(Sc2ccccc2)c1Cl
19 | 78 to 80 | [N-]=[N+]=NCc1nc2ccccc2n1Cc1ccc(Cl)c(Cl)c1
20 | 73 to 75 | CCOC(=O)c1c(C)nc(N2CCN(C)CC2)c([N+](=O)[O-])c1N
21 | 198 to 199 | Cc1nnc(-c2ccc3occ(-c4ccc(OCS(C)(=O)=O)cc4)c3c2)o1
22 | 122 to 124 | CCOC(=O)Cc1nc(-c2ccc(Cl)cc2)oc1Oc1cc(C)ccc1C
23 | 125 to 126 | CCOC(=O)N=C(NCCCc1c[nH]cn1)NCCC(c1ccccc1)c1ccccc1
24 | 71 to 74 | Cc1nnc(F)c(-c2c(F)cc(F)cc2F)c1-c1cccs1

Row | melting point [°C] | Structure (SMILES)
25 | 302 | COc1cccc2c(=O)c(C(N)=O)c(N)oc12
26 | 133 to 134 | CN1CCN(Cc2ccc(NC(=O)c3ccc(Cl)c(C#Cc4ccc(NC5CC5)nn4)c3)cc2C(F)(F)F)CC1
27 | 104 | [N-]=[N+]=NC1CCc2ccccc2C1NC(=O)OCc1ccccc1 (stereo not given)
28 | 60 to 63 | CCOC(=O)[C@H]1O[C@@H]1C(=O)N[C@@H](COCC(C)C)CC(C)C
29 | 201 to 202 | Cc1cc(N)c(C(=O)O)cc1F
30 | 227 | NC(CF)(Cc1cccc(O)c1)C(=O)O (stereo not given)
31 | 222 to 224 | Cc1ccc(-c2nnc(N3CCC(C(N)=O)CC3)nc2-c2ccc(C)cc2)cc1
32 | 71 to 72 | CC(C)[C@H](N)C(c1ccccc1)c1ccccc1
33 | 148 to 150 | Cc1cccc(-c2cn(C)cc(-c3cccc(C)c3)c2=O)c1
34 | 138 to 140 | CC12C=CC(=O)C=C1CCC1C2C(O)CC2(C)C1CC(OCCO)C2(O)C(=O)CO (stereo not given)
35 | 86 to 88 | CC(=O)N(C)C(Cc1ccncc1)C(=O)O (stereo not given)
36 | 239 to 241 | COc1cc2ncc(C#N)c(Nc3ccc(Oc4ccccc4)cc3)c2cc1OC
37 | 209 to 210 | O=C1CCCC(c2ccc(Cl)cc2)N1c1ccc(O)cc1 (stereo not given)
38 | 223 | O=C(NCC(=O)N1c2ccccc2N(Cc2ccccc2)C(=O)[C@H]2CCC[C@H]21)c1cccs1 (relative stereo)
39 | 220 to 222 | CSC1NC(=O)N(c2cccs2)C(=O)N1
40 | 126 to 128 | O=C(C=CCc1ccccc1)NCCCCCC(=O)NO
41 | 120 | CN(O)C(=O)NCCc1cc2ccccc2o1
42 | 192 to 194 | CCn1nc2c(N)nc3ccccc3c2c1CCCCNS(C)(=O)=O
43 | 200 to 201 | CCc1cccc(C)c1CNc1cc(C(=O)NCCO)cc2c1nc(C)n2C
44 | 172 to 182 | CSc1nc(Cl)cc(P(C)(C)=O)n1
45 | 93 to 94 | O=C(CC1CCCOC1=O)c1ccccc1 (stereo not given)
46 | 131 to 133 | COc1ccc2c3ccnc(C)c3n(Cc3ccccc3)c2c1
47 | 184 to 186 | NS(=O)(=O)c1cc2c(s1)CN(CCO)CC2
48 | 161 to 163 | CC(=O)Nc1ccc(S(=O)(=O)N[C@@H]2COCOC[C@H]2O)cc1 (relative stereo)

Row | melting point [°C] | Structure (SMILES)
49 | 160 to 162 | Cc1cc(-n2c(C)ccc2-c2ccc(S(C)(=O)=O)cc2)ccc1-c1ccco1
50 | 120 to 121 | COC(=O)C(=O)c1cc(Cl)c(OCCOc2ccc3ccccc3c2)c(Cl)c1
51 | 182 to 184 | O=C(O)CNC(=O)c1ncc(-c2cccc(F)c2)cc1O
52 | 142 to 144 | COc1ccc([C@@H]2C[C@H]2NC(=O)N(C)O)cc1OC (relative stereo)
53 | 165 | CN1C(=O)CCC(C)(C)c2cc(Nc3ncc(Cl)c(N[C@@H]4CCCC[C@H]4NS(C)(=O)=O)n3)ccc21
54 | > 270 | N#CC1=C(C2CCNCC2)Nc2n[nH]cc2C1c1cccc(C#N)c1Br (stereo not given)
55 | 226 to 227 | COc1cc(-c2cnc3[nH]cc(C(=O)Cc4ccccc4)c3n2)cc(OC)c1OC
56 | 206 to 207 | CC(C)(C)OCC(NC(=O)c1ccccc1SSc1ccccc1C(=O)NC(COC(C)(C)C)C(=O)O)C(=O)O (stereo not given)
57 | 190 to 193 | NCCCCCCCCC(=O)O
58 | 181 to 183 | CC(C)NS(=O)(=O)c1cc(Br)c(N)c(Br)c1
59 | 102 to 118 | Cc1c(C)c2c(c(C)c1O)C(O)CC(C)(COc1ccc(CC3SC(=O)NC3=O)cc1)O2 (stereo not given)
60 | 154 to 155 | Clc1ccc(-c2cncn3ncnc23)cc1
61 | 142 to 144 | CC(=O)NC1CCN(c2c(F)cc([N+](=O)[O-])c(F)c2CO)C1 (stereo not given)
62 | 254 to 256 | Cc1cc(C)c(-n2ccc3c(N)nn(C)c(=O)c32)c(C)c1
63 | 123 to 126 | C=CCc1ccc(-c2nc3c(N[C@H]4[C@@H](C(N)=O)[C@@H]5C=C[C@H]4C5)c(Cl)cnc3[nH]2)c(OC)c1
64 | 272 to 273 | C1=C(c2ccccc2)CCN(c2nsc3ccccc23)C1
65 | 102 | CC(C)(C)OC(=O)N1CCN(C(=O)C2CCCCN2C(=O)OCc2ccccc2)CC1 (stereo not given)
66 | 284 to 288 | O=c1[nH]c2cc(Cl)ccc2c(O)c1-c1ccccc1Oc1ccccc1
67 | 204 to 205 | COC(=O)c1cc(C(=O)NC(C)(C)CO)c2cc(Cc3ccc(F)cc3)cnc2c1O
68 | 159 | COc1cc(Nc2nccc(Nc3ccc(OCC(=O)O)cc3)n2)cc(OC)c1OC
69 | 194 to 196 | COc1cc(O)c2c(c1C)C(=O)SCC(=O)N[C@@H](c1nc(C)no1)COC2
70 | 159 | O=S(=O)(NCc1ccncc1)c1ccc(Br)s1
71 | 154 to 157 | CC(O)c1cc2c(Cl)cc(F)c(-n3c(=O)cc(C(F)(F)F)n(C)c3=O)c2o1 (stereo not given)
72 | 105 to 110 | C=CCOc1nc(N)c2ccccc2n1

Row | melting point [°C] | Structure (SMILES)
73 | 127 to 129 | CC(CCN(C)c1ccc(Cl)cc1)NCC(O)c1ccc(O)c(C(N)=O)c1 (stereo not given)
74 | 112 | CCCCCC=Cc1cccc2c(=O)[nH]c(-c3cc(S(=O)(=O)N4CCOCC4)ccc3OCCC)nc12
75 | 119 | COc1ccc(C(=O)Nc2ccc3ccc(C)nc3n2)cc1
76 | > 250 | Cc1cc(-c2ccc(C(F)(F)F)cc2)cc(-c2ccnc(-c3cccc(S(N)(=O)=O)c3)c2)n1
77 | 130 to 132 | O=C1C=C(Br)C(=O)c2ccccc21
78 | 116 | COC(=O)CCCN1CCC(NC(=O)c2ccccc2)CC1
79 | 114 to 116 | COc1cc2oc(=O)c3c(c2c(OC)c1OC)CCN(CC(C)=O)C3
80 | 119 | CCC(=NNC(=O)c1cccc(C(F)(F)F)c1)c1cccnc1
81 | 187 to 190 | C#Cc1ccnc(-c2cc([N+](=O)[O-])c(-c3ccccc3)cc2N)c1
82 | 246 to 247 | CN(c1cccc2cc(-c3ncc(CCC(N)=O)s3)[nH]c12)S(=O)(=O)c1cccs1
83 | 146 to 147 | CSC(=O)Cn1c(=O)sc2ccccc21
84 | 189 to 192 | NC(=O)c1nnn(Cc2ccc(Cl)c(C(=O)c3ccc(Cl)cc3)c2)c1N
85 | 220 to 222 | CC(C)C1CCN(Cc2ccc(COc3cccc4c3C(=O)N(C3CCC(=O)NC3=O)C4=O)cc2)CC1 (stereo not given)
86 | 141 to 143 | Cc1cnc2sc(Sc3ccccc3)nn2c1=O
87 | 110 to 111 | O=c1c2ccc(F)cc2ncn1Cc1ccccc1
88 | 76 to 77 | COc1ccc(C(=O)c2cccnc2N2CCCC2=O)cc1
89 | 179 to 181 | CC(=O)Nc1ccc(Br)c2c1CCN(C(C)=O)C2
90 | 153 to 154 | COC(=O)c1cccc2c(C=O)c[nH]c12
91 | 174 to 177 | CN1CCn2c1nc(N1CCc3ccccc3CC1)c(C#N)c2=O
92 | 96 to 103 | CCCc1nc(C)cn1-c1nc(OC)ccc1[N+](=O)[O-]
93 | 164 | Fc1ccc(Cn2c(NC3CCN(CCNc4ncccn4)CC3)nc3cncnc32)cc1
94 | 70 to 72 | CC=CC(O)c1c(C(C)C)nc(C(C)C)c(CCCCC)c1-c1ccc(F)cc1 (stereo not given)
95 | 237 to 239 | COc1cc(Nc2nc3cccc(-c4ccc(CNC(C)=O)cc4)c3o2)cc(OC)c1OC
96 | 153 to 155 | CC(C)(C)CC(C)(C)c1ccc(C(=O)O)cc1

Row | Structure (SMILES) | melting point [°C]
97 | O=C(OC1c2ccccc2C(=O)N1c1ccc2ccc(Cl)nc2n1)N1CCN(C(=O)C(F)(F)F)CC1 (stereo not given) | 218
98 | ClCCN1C2CCC1CC(c1ccc3ccccc3c1)C2 (stereo not given) | 84 to 88
99 | N#CC1(c2ccccc2)CCN(Cc2ccccc2)CC1 | 73 to 74
100 | CN1CC(CCN2CC(=O)NC2=O)CC2c3cccc4[nH]cc(c34)CC21 (stereo not given) | 242 to 244
